Measured values as given in US11512053B2, “Arginine methyltransferase inhibitors and uses thereof” (priority 2013, dated 2022).
Read-outs that look alike come from different tables or passages of the source.

Assays:
[1] = target: full-length human PRMT1 isoform 1 (GST-tagged) (Homo sapiens, UniProt Q99873); assay: PRMT1 Biochemical Assay (3H-SAM Flashplate, peptide substrate)
How it was run: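 Tritiated methyl transfer from 3H-SAM onto biotinylated peptide, captured on streptavidin Flashplates and counted. Baculovirus-expressed GST-PRMT1 and compound were preincubated 30 min at room temperature in Bicine buffer pH 7.6. Cold SAM at 300 uM final ended the reaction.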

[2] = target: full-length human PRMT6 (Flag- and His-tagged) (Homo sapiens, UniProt Q96LA8); assay: PRMT6 Biochemical Assay (3H-SAM Flashplate, peptide substrate); conditions: read-out: Biochemical IC50 PRMT6
How it was run: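 Radiometric methyltransferase readout: tritium transfer onto a biotin-tagged histone H4 36-50 peptide bearing monomethyl K44 (75 nM), captured on streptavidin Flashplates after stopping with 400 uM unlabeled SAM. Enzyme is baculovirus-expressed Flag-PRMT6-His at 1 nM, given 30 min with compound at room temperature before adding 200 nM 3H-SAM and 250 nM cold SAM (pH 7.6 Bicine, 2% DMSO). Percent inhibition relative to max/min (1 mM SAH) controls, curve-fit to IC50.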

[3] = single experiment or average of multiple experiments

full-length human PRMT6 (Flag- and His-tagged), sequence (Q96LA8 with tags, fused parts or gaps): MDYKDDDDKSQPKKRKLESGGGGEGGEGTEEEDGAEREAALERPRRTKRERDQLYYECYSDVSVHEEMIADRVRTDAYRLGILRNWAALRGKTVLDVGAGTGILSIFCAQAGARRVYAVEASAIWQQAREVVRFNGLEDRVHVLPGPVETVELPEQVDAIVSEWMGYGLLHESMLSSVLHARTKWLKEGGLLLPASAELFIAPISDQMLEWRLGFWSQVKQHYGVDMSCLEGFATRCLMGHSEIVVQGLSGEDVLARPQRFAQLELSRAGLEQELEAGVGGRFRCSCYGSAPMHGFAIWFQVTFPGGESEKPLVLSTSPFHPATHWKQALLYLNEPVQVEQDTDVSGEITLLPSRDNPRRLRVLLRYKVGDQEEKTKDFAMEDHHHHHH
full-length human PRMT1 isoform 1 (GST-tagged), sequence (Q99873 with tags, fused parts or gaps): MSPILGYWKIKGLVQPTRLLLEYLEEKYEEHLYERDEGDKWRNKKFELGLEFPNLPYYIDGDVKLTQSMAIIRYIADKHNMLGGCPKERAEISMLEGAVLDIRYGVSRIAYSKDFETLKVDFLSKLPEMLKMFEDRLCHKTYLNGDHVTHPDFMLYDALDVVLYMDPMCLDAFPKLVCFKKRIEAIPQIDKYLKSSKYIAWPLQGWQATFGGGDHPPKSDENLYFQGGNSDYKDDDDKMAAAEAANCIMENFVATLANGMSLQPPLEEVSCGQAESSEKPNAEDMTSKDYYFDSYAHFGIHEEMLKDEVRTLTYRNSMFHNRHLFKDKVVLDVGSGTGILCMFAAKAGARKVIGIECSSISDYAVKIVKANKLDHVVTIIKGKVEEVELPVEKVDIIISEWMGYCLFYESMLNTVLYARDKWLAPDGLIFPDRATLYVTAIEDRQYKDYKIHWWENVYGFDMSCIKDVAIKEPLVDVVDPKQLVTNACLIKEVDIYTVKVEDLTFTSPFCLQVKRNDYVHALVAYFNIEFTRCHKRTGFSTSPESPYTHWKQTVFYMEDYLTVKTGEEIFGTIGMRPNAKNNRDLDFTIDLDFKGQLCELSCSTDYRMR

SMILES | IC50 [1, 3] [nM] | IC50 [2, 3] [nM] | IC50 [1] [nM] | IC50 [2] [nM]
CNCCN(C)Cc1c[nH]nc1C#Cc1cccc(OC)c1 [Compound 1] | 10 | 70 |  | 
CNCCN(C)Cc1c[nH]nc1C#Cc1ccc(F)cc1 [Compound 4] | 20 | 20 |  | 
CNCCN(C)Cc1c[nH]nc1/C=C/c1ccc(-c2ccccc2)cc1 [Compound 5] | 10 |  |  | 
CN(CCN)Cc1c[nH]nc1C1=CCOCC1 [Compound 10] | 390 | 310 |  | 
COc1cc(/C=C/c2n[nH]cc2CN(C)CCN)cc(OC)c1 [Compound 11] | 10 | 50 |  | 
CN(CCN)Cc1c[nH]nc1C1CC1 [Compound 12] | 1580 | 1080 |  | 
CN(CCN)Cc1c[nH]nc1/C=C/c1cc(C(F)(F)F)cc(C(F)(F)F)c1 [Compound 14] | 90 | 930 |  | 
CN(CCN)Cc1c[nH]nc1/C=C/c1cccc(C(F)(F)F)c1 [Compound 16] | 20 | 150 |  | 
COc1cccc(/C=C/c2n[nH]cc2CN(C)CCN)c1 [Compound 17] | 10 | 50 |  | 
COC/C=C/c1n[nH]cc1CN(C)CCN [Compound 19] | 190 | 170 |  | 
CC(C)c1n[nH]cc1CN(C)CCN [Compound 21] | 1490 | 670 |  | 
CN(CCN)Cc1c[nH]nc1/C=C/Cc1ccccc1 [Compound 24] | 20 | 180 |  | 
CN(CCN)Cc1c[nH]nc1C1=CCCC1 [Compound 25] | 250 | 290 |  | 
CN(CCN)Cc1c[nH]nc1C1CCC1 [Compound 26] |  | 510 |  | 
CN(CCN)Cc1c[nH]nc1C(C)(C)C [Compound 27] |  | 2410 |  | 
CC(C)Cc1n[nH]cc1CN(C)CCN [Compound 28, N^1-((3-iso-butyl-1H-pyrazol-4-yl)methyl)-N^1-methylethane-1,2-diamine] | 180 | 80 |  | 
CCCc1n[nH]cc1CN(C)CCN [Compound 29] |  | 290 |  | 
Cc1n[nH]cc1CN(C)CCN [Compound 30] |  | 6590 |  | 
CNCCN(C)Cc1c[nH]nc1C1CCN(C(=O)CC(C)C)CC1 [Compound 40, 3-methyl-1-(4-(4-((methyl(2-(methylamino)ethyl)amino)methyl)-1H-pyrazol-3-yl)piperidin-1-yl)butan-1-one] | 20 | 20 |  | 
CNCCN(C)Cc1c[nH]nc1C1CCN(C)CC1 [Compound 41] | 10 |  |  | 
CNCCN(C)Cc1c[nH]nc1C1CCC(OC(C)C)CC1 (centres unmarked) [Compound 56] | 13.8 | 61.8 | < 100 | < 100
CNCCN(C)Cc1c[nH]nc1C1CCC(COC)(COC)CC1 [Compound 57] | 18.6 | 69.4 | < 100 | < 100
CNCCN(C)Cc1c[nH]nc1C1CCC(OCCOC)CC1 (centres unmarked) [Compound 58] | 26.5 | 108 | < 100 | < 100
CNCCN(C)Cc1c[nH]nc1C1CC(C)(C)OC(C)(C)C1 [Compound 59] | 19.6 | 128 | < 100 | 101 to 1000
CNCCN(C)Cc1c[nH]nc1C1CCC(COCCOC)(COCCOC)CC1 [Compound 60] | 27.5 | 155 | < 100 | 101 to 1000
CNCCN(C)Cc1c[nH]nc1C1CCC(COC(C)C)(COC(C)C)CC1 [Compound 61] | 20.5 | 49.1 | < 100 | < 100

Continued, values first:

IC50 [1, 3] [nM] | IC50 [2, 3] [nM] | IC50 [1] [nM] | IC50 [2] [nM] | SMILES
10 | 40 |  |  | CNCCN(C)Cc1c[nH]nc1C#Cc1ccc(C(C)(C)C)cc1 [Compound 2]
40 | 30 |  |  | CNCCN(C)Cc1c[nH]nc1/C=C/c1ccc(C(F)(F)F)cc1 [Compound 6]
10 | 20 |  |  | CNCCN(C)Cc1c[nH]nc1/C=C/c1ccc(OC)cc1 [Compound 7]
20 | 40 |  |  | Cc1ccc(/C=C/c2n[nH]cc2CN(C)CCN)cc1 [Compound 8]
10 | 10 |  |  | CN(CCN)Cc1c[nH]nc1/C=C/c1ccc(F)cc1F [Compound 13]
50 | 40 |  |  | CN(CCN)Cc1c[nH]nc1/C=C/c1cc(F)cc(F)c1 [Compound 15]
 | 10 |  |  | CN(CCN)Cc1c[nH]nc1/C=C/c1ccc(C(F)(F)F)cc1 [Compound 18]
20 | 20 |  |  | CN(CCN)Cc1c[nH]nc1/C=C/c1cccc(F)c1 [Compound 20]
10 | 20 |  |  | CN(CCN)Cc1c[nH]nc1C1CCCCC1 [Compound 22]
10 | 10 |  |  | CN(CCN)Cc1c[nH]nc1CCc1ccc(F)cc1 [Compound 23, N^1-((3-(4-fluorophenethyl)-1H-pyrazol-4-yl)methyl)-N^1-methylethane-1,2-diamine]
110 | 30 |  |  | CN(CCN)Cc1c[nH]nc1C1CCCC1 [Compound 31]
20 | 20 |  |  | CNCCN(C)Cc1c[nH]nc1C1CCN(C(=O)Cc2ccccc2)CC1 [Compound 32]
20 | 20 |  |  | CN(CCN)Cc1n[nH]cc1C1CCCCC1 [Compound 33]
20 | 30 |  |  | CNCCN(C)Cc1c[nH]nc1C1CCN(C(=O)C(C)C)CC1 [Compound 34]
 | 10 |  |  | CC1CCC(c2c[nH]nc2CN(C)CCN)CC1 (centres unmarked) [Compound 35]
 | 10 |  |  | CN(CCN)Cc1n[nH]cc1C1CCC(C)(C)CC1 [Compound 36]
10 | 10 |  |  | CC1CCC(c2n[nH]cc2CN(C)CCN)CC1 (centres unmarked) [Compound 37, N^1-methyl-N^1-((3-(4-methylcyclohexyl)-1H-pyrazol-4-yl)methyl)ethane-1,2-diamine]
 | 10 |  |  | CN(CCN)Cc1c[nH]nc1C1CCC(C)(C)CC1 [Compound 38, N^1-((3-(4,4-dimethylcyclohexyl)-1H-pyrazol-4-yl)methyl)-N^1-methylethane-1,2-diamine]

IC50 [1, 3] [nM] | IC50 [2, 3] [nM] | IC50 [1] [nM] | IC50 [2] [nM] | SMILES
 | 10 |  |  | CNCCN(C)Cc1c[nH]nc1C1CCN(CC(C)C)CC1 [Compound 39, N^1-((3-(1-isobutylpiperidin-4-yl)-1H-pyrazol-4-yl)methyl)-N^1,N^2-dimethylethane-1,2-diamine]
 | 20 |  |  | CNCCN(C)Cc1c[nH]nc1C1CCNCC1 [Compound 42]
 | 20 |  |  | CN(CCN)Cc1n[nH]cc1C1CCC(N2CCOCC2)CC1 (centres unmarked) [Compound 44, N^1-methyl-N^1-((4-(4-morpholinocyclohexyl)-1H-pyrazol-3-yl)methyl)ethane-1,2-diamine]
2.8 | 5.6 | < 100 | < 100 | CN(CCN)Cc1c[nH]nc1C1CCC2(CCCC2)CC1 [Compound 45]
7.9 | 12.2 | < 100 | < 100 | CNCCN(C)Cc1c[nH]nc1C1CCC2(CCCCC2)CC1 [Compound 46]
4.3 | 17.3 | < 100 | < 100 | CNCCN(C)Cc1cn(C)nc1C1CCC2(CCCC2)CC1 [Compound 47]
7.4 | 17.8 | < 100 | < 100 | CNCCN(C)Cc1c[nH]nc1C1CCC2(CCCC2)CC1 [Compound 48]
4.3 | 19.9 | < 100 | < 100 | CNCCN(C)Cc1cnn(C)c1C1CCC2(CCCC2)CC1 [Compound 49]
8.6 | 20.6 | < 100 | < 100 | CNCCN(C)Cc1c[nH]nc1C1CCC(C(C)C)CC1 (centres unmarked) [Compound 50]
9.4 | 23.9 | < 100 | < 100 | CNCCN(C)Cc1c[nH]nc1C1CCC2(CCCO2)CC1 (centres unmarked) [Compound 51]
4.7 | 24.3 | < 100 | < 100 | CNCCN(C)Cc1c[nH]nc1C1CCC(C)(C)CC1 [Compound 52]
10.5 | 38 | < 100 | < 100 | CNCCN(C)Cc1c[nH]nc1C1CCC(COC)CC1 (centres unmarked) [Compound 53]
8 | 38.2 | < 100 | < 100 | CNCCN(C)Cc1c[nH]nc1C1CCC2(CCOC2)CC1 (centres unmarked) [Compound 54]
12.8 | 40.4 | < 100 | < 100 | CNCCN(C)Cc1c[nH]nc1C1CCC(CCOC)CC1 (centres unmarked) [Compound 55]
11.9 | 29 | < 100 | < 100 | CNCCN(C)Cc1c[nH]nc1C1CCC2(CCCCC2)OC1 (centres unmarked) [Compound 62]
9 | 12.1 | < 100 | < 100 | CNCCN(C)Cc1c[nH]nc1C1CCC2(CC1)CC(C)OC(C)C2 (centres unmarked) [Compound 63]
 | 12.4 |  | < 100 | CNCCN(C)Cc1c[nH]nc1[C@H]1CC[C@@]2(CC1)CC(C)(C)CO2 [Compound 133, Methyl[2-(methylamino)ethyl]([3-[(5s,8s)-3,3-dimethyl-1-oxaspiro[4.5]decan-8-yl]-1H-pyrazol-4-yl]methyl)amine]
 | 35.1 |  | < 100 | CNCCN(C)Cc1c[nH]nc1[C@H]1CC[C@]2(CC1)CC(C)(C)CO2 [Compound 134, methyl[2-(methylamino)ethyl]([3-[(5r,8r)-3,3-dimethyl-1-oxaspiro[4.5]decan-8-yl]-1H-pyrazol-4-yl]methyl)amine]
